This note sets out measurements from ChEMBL document CHEMBL3046062, “Anti-HIV, antimycobacterial and antimicrobial studies of newly synthesized 1,2,4-triazole clubbed benzothiazoles” (Med Chem Res, 2013).

One data set deals with Streptococcus pyogenes. Nature of the data set: Antibacterial activity against Streptococcus pyogenes MTCC 443 after overnight incubation by broth microdilution method. Format: functional. On the technique in general: Broth dilution looks for growth in wells or tubes with falling amounts of substance.
The nature of data set [1]: Selectivity index, ratio of CC50 for human MT4 cells to IC50 for HIV1 3B. Format: functional.
For data set [2], the system named is Human immunodeficiency virus 2. Nature of the data set: Antiviral activity against Human immunodeficiency virus type 2 (ISOLATE ROD) infected MT4 cells assessed as inhibition of virus-induced cytopathogenicity after 5 days by MTT assay. Format: functional, organism-based. To be noted: Human immunodeficiency virus 2, ISOLATE ROD, MT4, 120 h. (In general: Protection from cytopathic effect is a common read-out in antiviral testing.)

The subject of data set [3] is Human immunodeficiency virus 1. The data set is described as follows: Antiviral activity against Human immunodeficiency virus 1 IIIB infected MT4 cells assessed as inhibition of virus-induced cytopathogenicity after 5 days by MTT assay. Format: functional, organism-based. To be noted: MT4, 120 h.
A short description of data set [4]: Cytotoxicity against Homo sapiens (human) MT4 cells after 5 days by MTT assay. Format: cell-based. In general terms: Tetrazolium dyes change colour on reduction, which living cells bring about.
Data set [5] can be described thus: Selectivity index, ratio of CC50 for human MT4 cells to IC50 for HIV2 ROD. Format: functional.
The next data set concerns Pseudomonas aeruginosa. The data set is described as follows: Antibacterial activity against Pseudomonas aeruginosa MTCC 2488 after overnight incubation by broth microdilution method. The data set is classed as functional.
Another data set deals with Aspergillus clavatus. The data set is described as follows: Antifungal activity against Aspergillus clavatus MTCC 323 after overnight incubation by broth microdilution method. The data set is classed as functional.
A further data set has as its system Candida albicans. The data set is described as follows: Antifungal activity against Candida albicans MTCC 227 after overnight incubation by broth microdilution method. Format: functional.
Another data set relates to Escherichia coli. Nature of the data set: Antibacterial activity against Escherichia coli MTCC 442 after overnight incubation by broth microdilution method. The data set is classed as functional.
The subject of data set [6] is Mycobacterium tuberculosis. The data set is described as follows: Growth inhibition of Mycobacterium tuberculosis H37Rv at MIC after 28 days by Lowenstein-Jensen agar method. Format: functional.
Another data set relates to Aspergillus niger. Nature of the data set: Antifungal activity against Aspergillus niger MTCC 282 after overnight incubation by broth microdilution method. The data set is classed as functional.
Data set [7] deals with Mycobacterium tuberculosis. Nature of the data set: Antitubercular activity against Mycobacterium tuberculosis H37Rv after 28 days by Lowenstein-Jensen agar method. The data set is classed as functional. To be noted: 672 h.
The subject of the next data set is Staphylococcus aureus. Nature of the data set: Antibacterial activity against Staphylococcus aureus MTCC 96 after overnight incubation by broth microdilution method. Format: functional.

In brackets after ≈: the same amount, converted by molar mass.

Broadly, the MIC99 is the lowest concentration that inhibits either 99% of growth or 99% of the strains tested, depending on the study. By IC50 is commonly meant the concentration at which inhibition is half-maximal. For orientation: CC50 means the concentration giving 50% cytotoxicity. A lower CC50 goes with harm at low concentration. As usually defined, the MIC is the smallest concentration in the dilution series that meets the test's criterion for growth inhibition. Read a high MIC as a need for much substance.

For the compound `Cc1ccc2nc(Nn3c(-c4ccc(Cl)cc4)nnc3-c3cccnc3)sc2c1`, the MIC99 is 500 mg/L (≈ 1190 µM) in the data set on Streptococcus pyogenes; 500 mg/L (≈ 1190 µM) against Pseudomonas aeruginosa; 1000 mg/L (≈ 2390 µM) in the data set on Aspergillus clavatus; 1000 mg/L (≈ 2390 µM) in the data set on Candida albicans; 500 mg/L (≈ 1190 µM) with Escherichia coli; 1000 mg/L (≈ 2390 µM) against Aspergillus niger. Besides, the MIC99 against Staphylococcus aureus was 500 mg/L (≈ 1190 µM). Moreover, the “Ratio CC50/IC50” value in [1] and in data set [5] was below 1 each time. In addition, the 50% inhibitory concentration (IC50) in data set [2] and in [3] was above 75.5 mg/L throughout. This compound also yielded a CC50 at 120 h in [4] of 75.5 mg/L (≈ 180 µM). Moreover, the “growth inhibition (GI)” value in [6] is listed as 95%. Further, the lowest concentration to inhibit growth in data set [7] (MIC) was 50 mg/L (≈ 119 µM).

For the compound `Clc1ccc(-c2nnc(-c3cccnc3)n2Nc2nc3ccc(Br)cc3s2)cc1`, the MIC99 is 1000 mg/L (≈ 2070 µM) in the data set with Streptococcus pyogenes; 500 mg/L (≈ 1030 µM) against Pseudomonas aeruginosa; 1000 mg/L (≈ 2070 µM) against Aspergillus clavatus; 100 mg/L (≈ 207 µM) with Candida albicans; 500 mg/L (≈ 1030 µM) against Escherichia coli; 500 mg/L (≈ 1030 µM) with Aspergillus niger. Besides, the MIC99 in the data set on Staphylococcus aureus stood at 500 mg/L (≈ 1030 µM). The “Ratio CC50/IC50” value in [1] and in data set [5] was below 1 throughout. In addition, the IC50 in [2] and in [3] was above 29.6 mg/L each time. In data set [4], this compound showed a CC50 at 120 h of 29.6 mg/L (≈ 61.2 µM). Moreover, the “growth inhibition (GI)” value in data set [6] worked out at 96%. Moreover, in data set [7], the minimal inhibitory concentration (MIC) worked out at 500 mg/L (≈ 1030 µM).

With `COc1ccc2nc(Nn3c(-c4ccc(Cl)cc4)nnc3-c3cccnc3)sc2c1`, the MIC99 was 500 mg/L (≈ 1150 µM) in the data set with Streptococcus pyogenes; 250 mg/L (≈ 575 µM) against Pseudomonas aeruginosa; 500 mg/L (≈ 1150 µM) with Aspergillus clavatus; 250 mg/L (≈ 575 µM) against Candida albicans; 500 mg/L (≈ 1150 µM) in the data set with Escherichia coli; 500 mg/L (≈ 1150 µM) in the data set on Aspergillus niger. Besides, the MIC99 with Staphylococcus aureus was 500 mg/L (≈ 1150 µM). The “Ratio CC50/IC50” value in data set [1] and in data set [5] was below 1 throughout. Besides, the IC50 in [2] and in [3] was above 66.8 mg/L each time. For the same compound, in data set [4], it took 66.8 mg/L (≈ 154 µM) to reach half-maximal cytotoxicity (CC50 at 120 h). Further, in data set [6], the “growth inhibition (GI)” value was 98%. The compound also displayed an MIC in data set [7] of 500 mg/L (≈ 1150 µM).

On to `Clc1ccc(-c2nnc(-c3cccnc3)n2Nc2nc3cc(Cl)c(Cl)cc3s2)cc1`, for which the MIC99 against Streptococcus pyogenes came to 500 mg/L (≈ 1060 µM); with Pseudomonas aeruginosa, 250 mg/L (≈ 528 µM); in the data set on Aspergillus clavatus, 1000 mg/L (≈ 2110 µM); in the data set with Candida albicans it was 250 mg/L (≈ 528 µM); against Escherichia coli, 500 mg/L (≈ 1060 µM); against Aspergillus niger, 250 mg/L (≈ 528 µM). Also, the MIC99 with Staphylococcus aureus is 500 mg/L (≈ 1060 µM). The “Ratio CC50/IC50” value in [1] and in data set [5] was below 1 each time. Moreover, the half-maximal inhibitory concentration (IC50) in data set [2] and in data set [3] was above 52.1 mg/L throughout. In addition, in data set [4], it took 52.1 mg/L (≈ 110 µM) to reach half-maximal cytotoxicity (CC50 at 120 h). In addition, in data set [6], the “growth inhibition (GI)” value worked out at 98%. For the same compound, the lowest concentration to inhibit growth in data set [7] (MIC) was 250 mg/L (≈ 528 µM).

For the compound `Clc1ccc(-c2nnc(-c3cccnc3)n2Nc2nc3c(Cl)cccc3s2)cc1`, the MIC99 is 500 mg/L (≈ 1140 µM) in the data set with Streptococcus pyogenes; 62.5 mg/L (≈ 142 µM) in the data set on Pseudomonas aeruginosa; 500 mg/L (≈ 1140 µM) in the data set on Aspergillus clavatus; 200 mg/L (≈ 455 µM) against Candida albicans; 100 mg/L (≈ 228 µM) in the data set on Escherichia coli; 500 mg/L (≈ 1140 µM) against Aspergillus niger. The compound also gave an MIC99 in the data set on Staphylococcus aureus of 250 mg/L (≈ 569 µM). The “Ratio CC50/IC50” value in data set [1] and in data set [5] was below 1 in each case. The half-maximal inhibitory concentration (IC50) in data set [2] and in [3] was above 27.2 mg/L throughout. The compound also registered a CC50 at 120 h in data set [4] of 27.2 mg/L (≈ 61.8 µM). Further, in data set [6], the “growth inhibition (GI)” value turned out to be 98%. For the same compound, the MIC in data set [7] was determined as 12.5 mg/L (≈ 28.5 µM).

`Clc1ccc(-c2nnc(-c3cccnc3)o2)cc1`: the MIC99 against Streptococcus pyogenes was found to be 250 mg/L (≈ 970 µM); against Pseudomonas aeruginosa, 500 mg/L (≈ 1940 µM); against Aspergillus clavatus it was 1000 mg/L (≈ 3880 µM); with Candida albicans it was 500 mg/L (≈ 1940 µM); in the data set with Escherichia coli, 500 mg/L (≈ 1940 µM); against Aspergillus niger, 1000 mg/L (≈ 3880 µM). Further, in the data set with Staphylococcus aureus, the MIC99 came to 200 mg/L (≈ 776 µM). In addition, the “Ratio CC50/IC50” value in data set [1] and in data set [5] was below 1 in each case. The 50% inhibitory concentration (IC50) in data set [2] and in data set [3] was above 4.49 mg/L throughout. Further, the CC50 at 120 h in data set [4] stood at 4.49 mg/L (≈ 17.4 µM). Also, in data set [6], the “growth inhibition (GI)” value is 98%. Besides, the minimal inhibitory concentration (MIC) in [7] came out at 500 mg/L (≈ 1940 µM).
